System: colorectal cancer cell lines (HT29 & HCT116)
Experiment: Microarray gene expression, cells grown with Symadex at the GI50 concentration
Type: cell-based, human
Description: Two colorectal cancer cell lines (HT29 & HCT116) were chosen for study, whose behavior as rapidly proliferating invasive cells could be generalized to many other such cell types from different tissue origins. The two lines were immortalized colon carcinomas. Their gene expression patterns are known to mimic the behavior of neuro-enteric cells and therefore provide an appropriate simulation of the kinds of regulatory patterns that would be found in cells of similar epithelial or endothelial origin. Cells with these ontological roots are also suitable models for the kinds of autoimmune and inflammatory susceptibilities that are common in tissues of neuroenteric origin, such as those in which inflammatory bowel disease would present itself.
Frozen cell pellets were lysed in triplicate and total RNA isolated by purification over spin columns (all reagents from Ambion). After QC acceptance for purity, total RNA was converted to cRNA by linear amplification and 10 μg samples were applied to CodeLink Human Whole Genome Bioarrays (GE Healthcare and GenUs Biosystems).
Arrays were processed in triplicate and comparisons made after robust statistical analysis of replicate variability. […] False discovery rates and representation in standardized gene ontologies/pathways were then determined by filtering the “fold” changes in expression with open access software packages, EASE and GoMiner, and with Pathways Analysis (Ingenuity Systems). Functional annotations were then explored further in the MedMiner literature search environment.
A listing of these is shown in Table 3, in which the first column data presents the fold change against control, the second column cites the gene symbol, the third column cites the Genbank Accession, and the fourth column provides an abridged description of the gene's function.

## CCN(CC)CCNc1ccc2ncn3c4ccc(O)cc4c(=O)c1c23 [Symadex™, 5-[[(diethylamino)ethyl]amino]-8-hydroxyimidazo[4,5,1-de]-acridine-6-one]
  fold down-regulation of SULT4A1: ~300 fold
  fold down-regulation of SYNE1: 1500 fold
AA188573
  Mean fold change over control: NT5C3: −2.08
AA279477
  Mean fold change over control: SLC9A7: −8.20
AA496141
  Mean fold change over control: PPP2R5A: −36.93
AA664719
  Mean fold change over control: ACYP1: −2.07
AA708864
  Mean fold change over control: PRLR: −25.92
AA873769
  Mean fold change over control: UBL4: −10.12
AB033048
  Mean fold change over control: PPP1R9A: −26.54
AB058781
  Mean fold change over control: MAP6: −12.89
AF250847
  Mean fold change over control: ASAH2: −2.21
AI064964
  Mean fold change over control: MTIF2: −59.05
AI079911
  Mean fold change over control: NEB: −6.89
AI364966
  Mean fold change over control: MGAT4A: −10.83
AI630242
  Mean fold change over control: EIF2AK4: −15.24
AI659245
  Mean fold change over control: ATP1B4: −8.24
AI671488
  Mean fold change over control: VAPA: −12.46
AI674778
  Mean fold change over control: PAFAH1B1: −12.85
AK090763
  Mean fold change over control: PMPCB: −15.36
AK095107
  Mean fold change over control: IL1RAP: −11.23
AK098228
  Mean fold change over control: PFKL: −10.55
AL118561
  Mean fold change over control: KIF5A: −11.04
AL565198
  Mean fold change over control: LNX: −87.48
AL713608
  Mean fold change over control: ACTA2: −17.00
AU127142
  Mean fold change over control: DHFR: −2.95
AW051366
  Mean fold change over control: SIN3B: −2.93
AW139027
  Mean fold change over control: NDUFV3: −10.52
AW603708
  Mean fold change over control: TSFM: −2.11
AW969600
  Mean fold change over control: PXN: −6.00
BC047734
  Mean fold change over control: PTPRG: −18.91
BF093914
  Mean fold change over control: TRA2A: −2.55
BF308998
  Mean fold change over control: RPL4: −39.17
BF926082
  Mean fold change over control: PLXNA3: −8.04
BF959890
  Mean fold change over control: ITGA9: −27.91
BG505162
  Mean fold change over control: MT2A: −2.09
BG739826
  Mean fold change over control: PECAM1: −17.53
BI021745
  Mean fold change over control: NCF1: −33.67
BI715309
  Mean fold change over control: FNTA: −9.02
BI769614
  Mean fold change over control: RB1: −84.42
BM665467
  Mean fold change over control: ENG: −6.35
BM684446
  Mean fold change over control: MT1A: −16.21
BM693455
  Mean fold change over control: RPS3: −68.37
BM714794
  Mean fold change over control: MAPT: −26.53
BM994339
  Mean fold change over control: NT5E: −17.10
BQ053282
  Mean fold change over control: MXD3: −2.66
BU533957
  Mean fold change over control: RYR3: −2.43
BU607554
  Mean fold change over control: ZNF145: −30.18
BX106711
  Mean fold change over control: CASR: −11.45
BX111619
  Mean fold change over control: EIF4EL3: −15.36
BX116836
  Mean fold change over control: GNAL: −18.16
CB992712
  Mean fold change over control: GPR1: −11.49
CD678960
  Mean fold change over control: OLR1: −16.33
H57815
  Mean fold change over control: TMPO: −2.64
NM_000020
  Mean fold change over control: ACVRL1: −9.43
NM_000029
  Mean fold change over control: AGT: −22.71
NM_000039
  Mean fold change over control: APOA1: −13.15
NM_000057
  Mean fold change over control: BLM: −2.58
NM_000089
  Mean fold change over control: COL1A2: −54.48
NM_000103
  Mean fold change over control: CYP19A1: −20.65
NM_000138
  Mean fold change over control: FBN1: −13.00
NM_000164
  Mean fold change over control: GIPR: −19.73
NM_000169
  Mean fold change over control: GLA: −2.51
NM_000347
  Mean fold change over control: SPTB: −16.71
NM_000419
  Mean fold change over control: ITGA2B: −10.64
NM_000433
  Mean fold change over control: NCF2: −21.83
NM_000436
  Mean fold change over control: OXCT: −2.68
NM_000451
  Mean fold change over control: SHOX: −7.34
NM_000457
  Mean fold change over control: HNF4A: −7.42
NM_000475
  Mean fold change over control: NR0B1: −15.94
NM_000550
  Mean fold change over control: TYRP1: −12.47
NM_000640
  Mean fold change over control: IL13RA2: −9.79
NM_000669
  Mean fold change over control: ADH1C: −12.02
NM_000745
  Mean fold change over control: CHRNA5: −2.14
NM_000788
  Mean fold change over control: DCK: −1.94
NM_000808
  Mean fold change over control: GABRA3: −10.14
NM_000946
  Mean fold change over control: PRIM1: −3.47
NM_001039
  Mean fold change over control: SCNN1G: −14.52
NM_001045
  Mean fold change over control: SLC6A4: −19.44
NM_001117
  Mean fold change over control: ADCYAP1: −21.74
NM_001168
  Mean fold change over control: BIRC5: −1.91
NM_001198
  Mean fold change over control: PRDM1: −3.78
NM_001316
  Mean fold change over control: CSE1L: −2.53
NM_001488
  Mean fold change over control: TADA2L: −2.04
NM_001541
  Mean fold change over control: HSPB2: −13.76
NM_001711
  Mean fold change over control: BGN: −12.57
NM_001779
  Mean fold change over control: CD58: −2.40
NM_001786
  Mean fold change over control: CDC2: −2.09
NM_001790
  Mean fold change over control: CDC25C: −2.99
NM_001826
  Mean fold change over control: CKS1B: −2.38
NM_001881
  Mean fold change over control: CREM: −2.13
NM_001941
  Mean fold change over control: DSC3: −89.97
NM_001948
  Mean fold change over control: DUT: −2.08
NM_001996
  Mean fold change over control: FBLN1: −17.42
NM_002000
  Mean fold change over control: FCAR: −11.62
NM_002105
  Mean fold change over control: H2AFX: −2.31
NM_002106
  Mean fold change over control: H2AFZ: −2.35
NM_002128
  Mean fold change over control: HMGB1: −1.97
NM_002137
  Mean fold change over control: HNRPA2B1: −1.93
NM_002185
  Mean fold change over control: IL7R: −25.20
NM_002208
  Mean fold change over control: ITGAE: −2.12
NM_002243
  Mean fold change over control: KCNJ15: −6.83
NM_002274
  Mean fold change over control: KRT13: −3.34
NM_002341
  Mean fold change over control: LTB: −12.57
NM_002358
  Mean fold change over control: MAD2L1: −3.14
NM_002383
  Mean fold change over control: MAZ: −1.89
NM_002452
  Mean fold change over control: NUDT1: −1.89
NM_002490
  Mean fold change over control: NDUFA6: −2.51
NM_002491
  Mean fold change over control: NDUFB3: −15.58
NM_002503
  Mean fold change over control: NFKBIB: −2.01
NM_002528
  Mean fold change over control: NTHL1: −2.34
NM_002572
  Mean fold change over control: PAFAH1B2: −2.25
NM_002594
  Mean fold change over control: PCSK2: −16.89
NM_002692
  Mean fold change over control: POLE2: −2.62
NM_002754
  Mean fold change over control: MAPK13: −2.14
NM_002875
  Mean fold change over control: RAD51: −2.21
NM_002916
  Mean fold change over control: RFC4: −2.02
NM_002947
  Mean fold change over control: RPA3: −2.54
NM_003017
  Mean fold change over control: SFRS3: −2.84
NM_003024
  Mean fold change over control: ITSN1: −15.06
NM_003068
  Mean fold change over control: SNAI2: −17.45
NM_003140
  Mean fold change over control: SRY: −13.79
NM_003220
  Mean fold change over control: TFAP2A: −11.00
NM_003258
  Mean fold change over control: TK1: −2.34
NM_003269
  Mean fold change over control: NR2E1: −54.82
NM_003284
  Mean fold change over control: TNP1: −36.20
NM_003318
  Mean fold change over control: TTK: −2.24
NM_003384
  Mean fold change over control: VRK1: −2.79
NM_003472
  Mean fold change over control: DEK: −2.36
NM_003476
  Mean fold change over control: CSRP3: −26.26
NM_003575
  Mean fold change over control: ZNF282: −31.24
NM_003593
  Mean fold change over control: FOXN1: −9.60
NM_003600
  Mean fold change over control: STK6: −1.92
NM_003612
  Mean fold change over control: SEMA7A: −16.54
NM_003642
  Mean fold change over control: HAT1: −2.63
NM_003653
  Mean fold change over control: COPS3: −2.54
NM_003656
  Mean fold change over control: CAMK1: −1.92
NM_003856
  Mean fold change over control: IL1RL1: −28.60

From patent US20060189546A1, “Compounds for treating autoimmune and demyelinating diseases” (priority 2005, published 2006)
